Results as given in patent US11274332B2, “Methods of administering 3,4-diaminopyridine” (SERB SA, priority 2011, dated 2022).

Assay: Example 18: safety and tolerability in slow and fast acetylators
Format: in vivo, human
Description: The primary objective of the study was to assess the safety and tolerability of 3,4-DAP phosphate after single and multiple doses. The secondary objectives of the study were • Part 1 only: To determine the dose-related PK profile of amifampridine and of 3-N-acetyl amifampridine after single, escalating doses of 3,4-DAP phosphate • Part 2 only: To assess the steady-state plasma PK and accumulation of amifampridine and of 3-N-acetyl amifampridine over multiple days of dosing with 3,4-DAP phosphate An exploratory objective was to examine the overall activity of the N-acetyl transferase enzymes on the metabolism of amifampridine by assessing the PK of amifampridine and 3-N-acetyl amifampridine with phenotypic acetylation activity and genotyping determination of NAT2 gene polymorphisms. Study Design and Plan
Part 1 was a dose-proportionality study in 12 healthy subjects each receiving 4 ascending single oral doses of 3,4-DAP phosphate in a sequential manner (5 mg, 10 mg, 20 mg, and 30 mg). For all 12 subjects, the first 3 doses of oral 3,4-DAP phosphate (5-20 mg) were administered on 3 consecutive days (Days 1-3). Two fast and two slow acetylators (as defined by a caffeine challenge test in Example 15a) were selected as the first 4 enrolled subjects (sentinel subjects). For the 2 fast acetylators the 30 mg dose was administered on Day 4. […] Safety and tolerability data collected for all 4 subjects were reviewed and the safety and tolerability results of the 30 mg dose for these 4 sentinel subjects were acceptable. The 30 mg dose was given to the remaining 8 non-sentinel subjects on Day 7. Sentinel and non-sentinel subjects were released from the clinic on Day 5, Day 6, and Day 8 respectively, with all subjects returning for follow-tip assessments 2-4 days following their last dose.
Part 2, Group 1: Four sentinel subjects were selected after determining their acetylator status. Two were fast acetylators and two were slow acetylators. All four were dosed on Day 1 with 4 oral doses of 20 mg of 34-DAP phosphate (given at 4-hour dosing intervals). On Days […] and 2, safety and tolerability data was collected. Subjects left the clinic on Day 2. The safety and tolerability data collected for these 4 sentinel subjects were reviewed. The safety and tolerability results of Days 1 and 2 for these subjects were acceptable and thus Part 2 Group 2 was commenced. Minimally acceptable safety was defined as the absence of clinical seizure activity. Subjects in Group 1 returned to the clinic for their follow-up assessments 2-4 days following their last dose.
Each subject was given a final morning dose of 20 mg 3,4-DAP phosphate on Day 4. Subjects in Group 2 returned to the clinic for their follow-up assessments 2-4 days following their last dose.
Safety assessments: During the assessment period, the following safety measures were evaluated: vital signs, adverse events (AEs), 12-lead ECG, EEG and clinical laboratory tests.
Safety: Safety was assessed by the incidence of AEs, as well as changes in vital signs, 12-lead ECG, EEG, and clinical laboratory evaluations.
Safety: All subjects who received any amount of study drug in either Part 1 or Part 2 of this study and had post-dose safety information were included in the safety analyses. Safety was evaluated separately for Part 1 and Part 2 and was summarized by dose levels where appropriate. All verbatim AE terms were coded using Medical Dictionary for Regulatory Activities (MedDRA) terminology. Only treatment-emergent AEs (i.e., AEs with a start date on or after the first dose of study drug) were summarized. The incidence of AEs and SAEs were summarized for each study part by dose level, system, organ, class, preferred term, relationship to study drug, and severity. No deaths during the study, no discontinuations of study drug, and no withdrawals from the study and study drug due to an AE were observed.

## Nc1ccncc1N.O=P(O)(O)O [amifampridine phosphate, 3,4-diaminopyridine phosphate]
Part 1, 30 mg dose, sentinel subjects
  seizures: No seizures were seen
Part 1, single doses 5-30 mg
  phenotype in which drug-related adverse events were observed: observed in slow acetylators only
Part 2, fast acetylators (7)
  drug-related adverse events: % of subjects: 43%
  drug-related adverse events: events: six
  drug-related adverse events: subjects: 3
Part 2, slow acetylators (7)
  drug-related adverse events: % of subjects: 86%
  drug-related adverse events: events: Forty-five
  drug-related adverse events: subjects: 6
Part 2 Group 1, 20 mg x 4 on Day 1
  seizures: No seizures occurred
Parts 1 and 2
  serious adverse events: no serious adverse events
  severity of treatment-emergent adverse events: mild and transient
